Measurements published in US20030095958A1, “Inhibitors of bace” (priority 2001, published 2003).

biological target: BACE (Homo sapiens, UniProt P56817); assay: Ki Determination for the Inhibition of BACE (FS-1 peptide fluorescence cleavage assay); assay type: biochemical; details: apparent Ki; 50 nM BACE, 10 μM FS-1 substrate, 0.1M sodium acetate pH 4.5
How it was run: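 Human BACE (50 nM) was preincubated 15 min at room temperature with compound (2% DMSO) in 0.1 M sodium acetate pH 4.5, then 10 μM FS-1 peptide was added. Cleavage was followed by fluorescence (ex 355/em 495 nm), and apparent Ki came from fitting to the integrated competitive tight-binding inhibition equation.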

Sequence of BACE (P56817 46-501): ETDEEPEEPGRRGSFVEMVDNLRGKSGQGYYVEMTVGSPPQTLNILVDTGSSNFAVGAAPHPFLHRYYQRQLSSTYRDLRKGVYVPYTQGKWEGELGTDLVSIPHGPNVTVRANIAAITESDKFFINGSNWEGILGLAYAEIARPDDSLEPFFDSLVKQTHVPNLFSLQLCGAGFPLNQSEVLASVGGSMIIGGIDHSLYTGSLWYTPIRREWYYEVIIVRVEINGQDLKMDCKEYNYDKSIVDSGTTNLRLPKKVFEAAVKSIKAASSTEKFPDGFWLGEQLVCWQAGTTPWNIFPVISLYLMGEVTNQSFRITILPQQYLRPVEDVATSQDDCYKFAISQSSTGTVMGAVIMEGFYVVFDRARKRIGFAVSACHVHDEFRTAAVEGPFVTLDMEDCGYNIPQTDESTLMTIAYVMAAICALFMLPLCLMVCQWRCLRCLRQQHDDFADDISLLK

First: C1=C(c2cc(COc3ccc4ccccc4c3)c(-c3ccccc3)cc2COc2ccc3ccccc3c2)CCNC1 [Compound 307, 4-[2,5-Bis-(naphthalen-2-yloxymethyl)-biphenyl-4-yl]-1,2,3,6-tetrahydro-pyridine]
Second: FC(F)(F)c1ccccc1OCc1ccc(COc2ccc(-c3ccccc3)cc2-c2ccccc2)c(C2=CCNCC2)c1 [Compound 326, 4-[2-([1,1′;3′,1′′]Terphenyl-4′-yloxymethyl)-5-(2-trifluoromethyl-phenoxymethyl)-phenyl]-1,2,3,6-tetrahydro-pyridine]
The Ki of the first is lower: < 3 µM for the first, 3 to 30 µM for the second.

`O=C(Nc1ccc2ccccc2c1)c1ccc(COc2ccccc2C(F)(F)F)cc1C1=CCNCC1` [Compound 308, N-Naphthalen-2-yl-2-{1,2,3,6-tetrahydro-pyridin-4-yl)-4-(2-trifluoromethyl-phenoxymethyl)-benzamide] and `O=C(Nc1cccc2ccccc12)c1ccc(COc2ccccc2C(F)(F)F)cc1C1=CCNCC1` [Compound 322, N-Naphthalen-1-yl-2-(1,2,3,6-tetrahydro-pyridin-4-yl)-4-(2-trifluoromethyl-phenoxymethyl)-benzamide] fall in the same range of Ki: 3 to 30 µM for the first, 3 to 30 µM for the second.

`COc1cc(NC(=O)c2ccc(COc3ccccc3C(F)(F)F)cc2C2=CCNCC2)cc2ccccc12` [Compound 309, N-(4-Methoxy-naphthalen-2-yl)-2-(1,2,3,6-tetrahydro-pyridin-4-yl)-4-(2-trifluoromethyl-phenoxyraethyl)-benzamide] and `Nc1cc2ccccc2cc1NC(=O)c1ccc(COc2ccccc2C(F)(F)F)cc1C1=CCNCC1` [Compound 311, N-(3-Amino-naphthalen-2-yl)-2-(1,2,3,6-tetrahydro-pyridin-4-yl)-4-(2-trifluoromethyl-phenoxymethyl)-benzamide] fall in the same range of Ki: 3 to 30 µM for the first, 3 to 30 µM for the second.

Compared with `Nc1cccc2c(NC(=O)c3ccc(COc4ccccc4C(F)(F)F)cc3C3=CCNCC3)cccc12` [Compound 310, N-(5-Amino-naphthalen-1-yl)-2-(1,2,3,6-tetrahydro-pyridin-4-yl)-4-(2-trifluoromethyl-phenoxymethyl)-benzamide], `O=C(OCc1ccc(COc2ccccc2C(F)(F)F)cc1C1=CCNCC1)c1cccc2ccccc12` [Compound 312, Naphthalene-1-carboxylic acid 2-(1,2,3,6-tetrahydro-pyridin-4-yl)-4-(2-trifluoromethyl-phenoxymethyl)-benzyl ester] is lower in Ki: 3 to 30 µM for the first, < 3 µM for the second.

`O=C(OCc1ccc(COc2ccccc2C(F)(F)F)cc1C1=CCNCC1)c1ccc2ccccc2c1` [Compound 313, Naphthalene-2-carboxylic acid 2-(1,2,3,6-tetrahydro-pyridin-4-yl)-4-(2-trifluoromethyl-phenoxymethyl)-benzyl ester] and `O=C(OCc1ccc(COc2ccccc2C(F)(F)F)cc1C1=CCNCC1)Oc1ccc2ccccc2c1` [Compound 319, Carbonic acid naphthalen-2-yl ester 2-(1,2,3,6-tetrahydro-pyridin-4-yl)-4-(2-trifluoromethyl-phenoxymethyl)-benzyl ester] cannot be ordered by Ki: < 3 µM for the first, < 3 µM for the second.

Compared with `O=C(OCc1ccc(COc2ccccc2C(F)(F)F)cc1C1=CCNCC1)c1ccccc1C(F)(F)F` [Compound 314, 2-Trifluoromethyl-benzoic acid 2-(1,2,3,6-tetrahydro-pyridin-4-yl)-4-(2-trifluoromethyl-phenoxymethyl)-benzyl ester], `FC(F)(F)c1cccc(OCc2ccc(COc3ccccc3C(F)(F)F)cc2C2=CCNCC2)c1` [Compound 324, 4-[5-(2-Trifluoromethyl-phenoxymethyl)-2-(3-trifluoromethyl-phenoxymethyl)-phenyl]-1,2,3,6-tetrahydro-pyridine] is lower in Ki: 3 to 30 µM for the first, < 3 µM for the second.

First: O=C(COCc1ccccc1)OCc1ccc(COc2ccccc2C(F)(F)F)cc1C1=CCNCC1 [Compound 315, Benzyloxy-acetic acid 2-(1,2,3,6-tetrahydro-pyridin-4-yl)-4-(2-trifluoromethyl-phenoxymethyl)-benzyl ester]
Second: O=C(OCc1ccc(COc2ccccc2C(F)(F)F)cc1C1=CCNCC1)Oc1cccc2ccccc12 [Compound 318, Carbonic acid naphthalen-1-yl ester 2-(1,2,3,6-tetrahydro-pyridin-4-yl)-4-(2-trifluoromethyl-phenoxymethyl)-benzyl ester]
The Ki of the first is higher: 3 to 30 µM for the first, < 3 µM for the second. The second binds more tightly here.

`O=C(OCc1ccc(COc2ccccc2C(F)(F)F)cc1C1=CCNCC1)c1ccc2c(c1)OCO2` [Compound 316, Benzo[1,3]dioxole-5-carboxylic acid 2-(1,2,3,6-tetrahydro-pyridin-4-yl)-4-(2-trifluoromethyl-phenoxymethyl)-benzyl ester] and `COC(=O)c1ccc(C(=O)OCc2ccc(COc3ccccc3C(F)(F)F)cc2C2=CCNCC2)cc1` [Compound 317, Terephthalic acid 1-methyl ester 4-[2-(1,2,3,6-tetrahydro-pyridin-4-yl)-4-(2-trifluoromethyl-phenoxymethyl)-benzyl] ester] fall in the same range of Ki: 3 to 30 µM for the first, 3 to 30 µM for the second.

First: FC(F)(F)c1ccccc1OCc1ccc(COc2cccc3ccccc23)c(C2=CCNCC2)c1 [Compound 320, 4-[2-(Naphthalen-1-yloxymethyl)-5-(2-trifluoromethyl-phenoxymethyl)-phenyl]-1,2,3,6-tetrahydro-pyridine]
Second: FC(F)(F)c1ccccc1OCc1ccc(COc2ccc3ccccc3c2)c(C2=CCNCC2)c1 [Compound 321, 4-[2-(Naphthalen-2-yloxymethyl)-5-(2-trifluoromethyl-phenoxymethyl)-phenyl]-1,2,3,6-tetrahydro-pyridine]
The Ki of the first is higher: 3 to 30 µM for the first, < 3 µM for the second.

First: FC(F)(F)c1ccc(OCc2ccc(COc3ccccc3C(F)(F)F)cc2C2=CCNCC2)cc1 [Compound 323, 4-[5-(2-Trifluoromethyl-phenoxymethyl)-2-(4-trifluoromethyl-phenoxymethyl)-phenyl]-1,2,3,6-tetrahydro-pyridine]
Second: COC(=O)c1ccc(OCc2ccc(COc3ccccc3C(F)(F)F)cc2C2=CCNCC2)cc1 [Compound 329, 4-[2-(1,2,3,6-Tetrahydro-pyridin-4-yl)-4-(2-trifluoromethyl-phenoxymethyl)-benzyloxy]-benzoic acid methyl ester]
The Ki of the first is lower: < 3 µM for the first, 3 to 30 µM for the second. The first binds more tightly here.

`FC(F)(F)c1ccccc1OCc1ccc(COc2ccc(-c3ccccc3)cc2)c(C2=CCNCC2)c1` [Compound 325, 4-[2-(Biphenyl-4-yloxymethyl)-5-(2-trifluoromethyl-phenoxymethyl)-phenyl]-1,2,3,6-tetrahydro-pyridine] and `FC(F)(F)c1ccccc1OCc1ccc(COc2cccc3ncccc23)c(C2=CCNCC2)c1` [Compound 327, 5-[2-(1,2,3,6-Tetrahydro-pyridin-4-yl)-4-(2-trifluoromethyl-phenoxymethyl)-benzyloxy]-quinoline] cannot be ordered by Ki: < 3 µM for the first, < 3 µM for the second.

First: COC(=O)c1cccc(OCc2ccc(COc3ccccc3C(F)(F)F)cc2C2=CCNCC2)c1 [Compound 328, 3-[2-(1,2,3,6-Tetrahydro-pyridin-4-yl)-4-(2-trifluoromethyl-phenoxymethyl)-benzyloxy]-benzole acid methyl ester]
Second: COC(=O)c1cc(OCc2ccc(COc3ccccc3C(F)(F)F)cc2C2=CCNCC2)cc(C(=O)OC)c1 [Compound 330, 5-[2-(1,2,3,6-Tetrahydro-pyridin-4-yl)-4-(2-trifluoromethyl-phenoxymethyl)-benzyloxy]-isophthalic acid dimethyl ester]
The Ki of the first is higher: 3 to 30 µM for the first, < 3 µM for the second. The second binds more tightly here.

`O=C1CCCc2c(OCc3ccc(COc4ccccc4C(F)(F)F)cc3C3=CCNCC3)cccc21` [Compound 331, 5-[2-(1,2,3,6-Tetrahydro-pyridin-4-yl)-4-(2-trifluoromethyl-phenoxymethyl)-benzyloxy]-3,4-dihydro-2H-naphthalen-1-one] and `CCOC(=O)c1c(C)[nH]c2ccc(OCc3ccc(COc4ccccc4C(F)(F)F)cc3C3=CCNCC3)cc12` [Compound 332, 2-Methyl-5-[2-(1,2,3,6-tetrahydro-pyridin-4-yl)-4-(2-trifluoromethyl-phenoxymethyl)-benzyloxy]-1H-indole-3-carboxylic acid ethyl ester] cannot be ordered by Ki: < 3 µM for the first, < 3 µM for the second.

Compared with `FC(F)(F)c1ccccc1OCc1cc(C2=CCNCC2)c(COc2ccccc2C(F)(F)F)cc1Br` [Compound 333, 4-[4-Bromo-2,5-bis-(2-trifluoromethyl-phenoxymethyl)-phenyl]-1,2,3,6-tetrahydro-pyridine], `FC(F)(F)c1ccccc1OCc1cc(C2=CCNCC2)c(COc2ccccc2C(F)(F)F)cc1C1=CCNCC1` [Compound 334, 4-[4-(1,2,3,6-Tetrahydro-pyridin-4-yl)-2,5-bis-(2-trifluoromethyl-phenoxymethyl)-phenyl]-1,2,3,6-tetrahydro-pyridine] is higher in Ki: < 3 µM for the first, 3 to 30 µM for the second.

`FC(F)(F)c1ccccc1OCc1cc(-c2ccc(Cl)c(Cl)c2)c(COc2ccccc2C(F)(F)F)cc1C1=CCNCC1` [Compound 335, 4-[3′,4′-Dichloro-2,5-bis-(2-trifluoromethyl-phenoxymethyl)-biphenyl-4-yl]-1,2,3,6-tetrahydro-pyridine] and `FC(F)(F)c1cccc(-c2cc(COc3ccccc3C(F)(F)F)c(C3=CCNCC3)cc2COc2ccccc2C(F)(F)F)c1` [Compound 337, 4-[3′-Trifluoromethyl-2,5-bis-(2-trifluoromethyl-phenoxymethyl)-biphenyl-4-yl]-1,2,3,6-tetrahydro-pyridine] fall in the same range of Ki: 3 to 30 µM for the first, 3 to 30 µM for the second.

Compared with `FC(F)(F)c1ccccc1OCc1cc(-c2ccccc2C(F)(F)F)c(COc2ccccc2C(F)(F)F)cc1C1=CCNCC1` [Compound 336, 4-[2′-Trifluoromethyl-2,5-bis-(2-trifluoromethyl-phenoxymethyl)-biphenyl-4-yl]-1,2,3,6-tetrahydro-pyridine], `FC(F)(F)c1ccc(-c2cc(COc3ccccc3C(F)(F)F)c(C3=CCNCC3)cc2COc2ccccc2C(F)(F)F)cc1` [Compound 338, 4-[4′-Trifluoromethyl-2,5-bis-(2-trifluoromethyl-phenoxymethyl)-biphenyl-4-yl]-1,2,3,6-tetrahydro-pyridine] is higher in Ki: < 3 µM for the first, 3 to 30 µM for the second. The first binds more tightly here.
